Laboratory results reported in patent US6436988B1, “Use of 3-(2,4,6-trimethylphenyl)-4-neopentylcarbonyloxy-5,5- tetramethylene-Δ3-dihydrofuran-2-one for controlling the white fly” (Bayer Aktiengesellschaft, priority 1999, dated 2002).

Tested on: white fly Bemisia tabaci
Experiment: Bemisia test
Assay type: in vivo
Details: concentration of active compound 0.0008 %, infested cotton plants (Gossypium hirsutum) with eggs, larvae and pupae dipped into preparation
Description: Solvent: 7.5 parts by weight of dimethylformamide
Emulsifier: 2.5 parts by weight of alkylaryl polyglycol ether
To produce a suitable preparation of active compound, 1 part by weight of active compound is mixed with the stated amounts of solvent and emulsifier, and the concentrate is diluted with water to the desired concentrations.
Cotton plants (Gossypium hirsutum) infested by eggs, larvae and pupae of the white fly Bemisia tabaci are dipped into a preparation of active compound of the desired concentration.
After the desired period of time, the kill in % is determined. 100% means that all animals have been killed; 0% means that none of the animals have been killed.

Compound	Kill in % after 14 days [%]
Cc1cc(C)c(C2=C(OC(=O)CC(C)(C)C)C3(CCCCC3)OC2=O)c(C)c1	50
Cc1cc(C)c(C2=C(OC(=O)C(C)(C)C)C3(CCCC3)OC2=O)c(C)c1	0
Cc1cc(C)c(C2=C(OC(=O)CC(C)C)C3(CCCC3)OC2=O)c(C)c1	0
Cc1cc(C)c(C2=C(OC(=O)CC(C)(C)C)C3(CCCC3)OC2=O)c(C)c1 [formula (I), 3-(2,4,6-Trimethylphenyl)-4-neopentylcarbonyloxy-5,5-tetramethylene-Δ^3-dihydrofuran-2-one]	95
